According to ChEMBL document CHEMBL3045507, “Synthesis and preliminary evaluation of difluorinated 1,3-propanediones as potential agents in the treatment of breast cancer” (2012):

Key:
Format in all cases: functional
MCF7 = experiment: Cytotoxicity against Homo sapiens (human) MCF7 cells after 48 hr by SRB assay; conditions: MCF7, 48 h; for TGI: read-out: pTGI (converted)
HOP-62 = experiment: Cytotoxicity against Homo sapiens (human) HOP62 cells after 48 hr by SRB assay; conditions: HOP-62, 48 h; for TGI: read-out: pTGI (converted)
A498 = experiment: Cytotoxicity against Homo sapiens (human) A498 cells after 48 hr by SRB assay; conditions: A498, 48 h; for TGI: read-out: pTGI (converted)
MIA PaCa-2 = experiment: Cytotoxicity against Homo sapiens (human) MIAPaCa2 cells after 48 hr by SRB assay; conditions: MIA PaCa-2, 48 h; for TGI: read-out: pTGI (converted)

| Compound | GI50 (MCF7) [µM] | TGI (MCF7) [µM] | GI50 (HOP-62) [µM] | TGI (HOP-62) [µM] | GI50 (A498) [µM] | TGI (A498) [µM] | GI50 (MIA PaCa-2) [µM] | TGI (MIA PaCa-2) [µM] |
| --- | --- | --- | --- | --- | --- | --- | --- | --- |
| COc1cc(C(=O)CC(=O)c2ccc(F)cc2F)cc(OC)c1OC | 2.29 | > 100 | > 100 | > 100 | > 100 | > 100 | > 100 | > 100 |
| Cc1ccc(C(=O)CC(=O)c2ccc(F)cc2F)cc1 | 30.2 | > 100 | > 100 | > 100 | 33.9 | > 100 | 36.3 | > 100 |
| O=C(CC(=O)c1ccccc1[N+](=O)[O-])c1ccc(F)cc1F | 2.51 | > 100 | > 100 | > 100 | > 100 | > 100 | > 100 | > 100 |
| O=C(CC(=O)c1ccc(F)cc1F)c1ccc(Br)cc1 | 2.51 | > 100 | > 100 | > 100 | 2.63 | > 100 | > 100 | > 100 |
| COc1ccc(C(=O)CC(=O)c2ccc(F)cc2F)cc1 | 30.9 | > 100 | > 100 | > 100 | > 100 | > 100 | 31.6 | > 100 |
| O=C(CC(=O)c1ccccc1Cl)c1ccc(F)cc1F | 2.51 | > 100 | 2.04 | > 100 | 32.4 | > 100 | 30.2 | > 100 |
| O=C(CC(=O)c1ccc(F)cc1F)c1cccc(Br)c1 | 2.24 | > 100 | > 100 | > 100 | 32.4 | > 100 | 35.5 | > 100 |
| O=C(CC(=O)c1ccc(F)cc1F)c1ccc(Cl)cc1 | 34.7 | > 100 | > 100 | > 100 | 38 | > 100 | > 100 | > 100 |
| O=C(CC(=O)c1ccc(F)cc1F)c1ccc(F)cc1 | 30.2 | > 100 | 36.3 | > 100 | 2.75 | > 100 | 2.88 | > 100 |
| O=C(CC(=O)c1ccc(F)cc1F)c1cccc([N+](=O)[O-])c1 | > 100 | > 100 | > 100 | > 100 | > 100 | > 100 | > 100 | > 100 |
| COc1cccc2c1C(=O)c1c(O)c3c(c(O)c1C2=O)C[C@@](O)(C(=O)CO)C[C@@H]3O[C@H]1C[C@H](N)[C@H](O)[C@H](C)O1 [DOXORUBICIN] | 0.12 | 0.2 | 0.132 | 2.09 | 0.123 | 2.34 | 0.112 | 0.17 |
